Data reported in patent US20040087539A1, “Method of treating conditions related to platelet activity” (priority 2003, published 2004).

What was measured:
platelets [1] = test: Ristocetin-induced vWF-dependent platelet aggregation in platelet-rich plasma; assay type: cell-based, human; conditions: for integrin-dependent second wave of platelet aggregation induced by ristocetin: PRP preincubated 37° C. 5 min, KT5823 2 pM, Rp-8pCPT-cGMP 0.2 μM, KT5720 2 pM [sic], FIG. 3A
Description: (§1) Fresh blood from healthy volunteers was anticoagulated with 1/7 volume of ACD (2.5% trisodium citrate, 2% dextrose and 1.5% citric acid). Platelets were washed with CGS buffer (sodium chloride 0.12 M, trisodium citrate 0.0129 M and d-glucose 0.03 M, pH 6.5), resuspended in modified Tyrode's solution and allowed to incubate at 22° C. for 1 hours as previously described. In experiments using platelet-rich plasma (PRP), 1/10 volume of 3.8% trisodium citrate was used as anticoagulant. Platelet aggregation was measured using a turbidometric platelet aggregometer (Chrono-Log) at 37° C. vWF-dependent platelet aggregation was induced by addition of ristocetin or botrocetin to PRP. To differentiate CPIb-IX-mediated platelet agglutination from the second wave of integrin-dependent platelet aggregation, final concentrations of ristocetin were adjusted in each experiment to achieve a two-wave curve of aggregation. Washed platelets were used in platelet aggregation induced by a-thrombin (Enzyme Research Laboratories). To examine the effects of PKG, 100 μM of membrane permeable cGMP analogs, 8-bromo-cGMP or 8-dibutyl-cGMP (Calbiochem), or 1 μM sildenafil citrate (Pfizer) and added simultaneously with subthreshold concentrations of agonists. PKG inhibitors KT5823 (2 pM) and Rp-8PCPT-cGMP (0.2 mM) were preincubated with platelets at 37° C. for 5 minutes before addition of agonists.
(§2) In FIG. 3A, platelet rich-plasma (PRP) was preincubated at 37° C. for 5 mm with PKG inhibitors KT5823 (2 pM) or Rp-8pCPT-cGMP (0.2 μM). PRP was also incubated with DMSO (vehicle for KT5823), a PKA inhibitor, KT5720 (2 pM), or buffer (Control). The vWF modulator, ristocetin, was then added to induce vWF-GPIb-IX interaction. […] In FIG. 3B, a subthreshold concentration of ristocetin was added to PRP immediately followed by addition of 8-bromo-cGMP or buffer (Control). PRP also was preincubated with integrin inhibitor RGDS before adding ristocetin and 8-bromo-cGMP. In FIG. 3C, platelets were preincubated with or without PKG inhibitor KT5823, then allowed to spread on vWF-coated glass chamber slides. Platelets were stained with an anti-GPIb antibody, and fluorescein-labeled secondary antibody. The slides were imaged under a confocal microscope (magnification =630×).
(§3) In FIG. 6A, increasing concentrations of sildenafil or control 0.15 M NaCl solution were added to platelet-rich plasma followed by a subthreshold concentration of ristocetin. Platelet aggregation was recorded using a platelet aggregometer. In FIG. 6B, sildenafil or control buffer was added to washed platelets followed by addition of subthreshold doses of thrombin to induce platelet aggregation. It was noted that platelet aggregation occurs in the presence of sildenafil. The figure includes the representative results of at least three experiments.
(§4) In FIG. 7A, PRP was preincubated with 0.1 mM 8-bromo-cGMP for increasing lengths of time at 37° C. as indicated. The vWF modulator, ristocetin (1.25 mg/ml), then was added to induce platelet aggregation in a turbidometric platelet aggregometer. In FIG. 7B, PRP was preincubated with a high concentration of 8-bromo-cGMP (1 mM) for 5 minutes. Ristocetin then was added to induce platelet aggregation. In FIGS. 7C and 7D, washed platelets in modified Tyrode's solution were preincubated with 1 mM 8-bromo-cGMP (C), or various concentrations of 8-pCPT-cGMP (D) at 37° C. for 5 minutes. Thrombin (0.05 u/ml) then was added to induce platelet aggregation.

platelets [2] = test: Low-dose α-thrombin-induced aggregation of washed platelets; assay type: cell-based, human; conditions: for platelet aggregation induced by 0.05 units/ml α-thrombin: washed platelets preincubated 5 min, KT5823 2 μM, Rp-8pCPT-cGMP 0.2 mM, SZ2 40 pg/ml [sic], FIG. 5A
Description: as §1
In FIG. 5A, washed platelets were preincubated with 40 pg/mi anti-GPIba monoclonal antibody SZ2, integrin inhibitor RGDS, or inhibitors of PKG, KT5823 (2 μM) or Rp-8pCPT-cGMP (0.2 mM) (Calbiochem), for 5 min. Platelets also were preincubated with DMSO (vehicle for KT5823), KT5720 or buffer (Control) as controls. α-Thrombin (0.05 units/mi) then was added to induce platelet aggregation. Nonspecific JgG and RGES peptides also were examined as additional controls, but had no effect (not shown). In FIG. 5B, a subthreshold dose of thrombin was added to platelets immediately followed by addition of PKG activator 8-bromo-cGMP or buffer (Control). Shown in the figure are the representative results of at least three experiments.
as §3, §4

[3] = test system: 123 cells (CHO cells expressing recombinant human GPIb-IX and integrin αIIbβ3); test: vWF-induced GPIb-IX-mediated activation of integrin αIIbβ3 (Oregon green-labeled fibrinogen binding, flow cytometry); assay type: cell-based, Chinese Hamster; conditions: 123 cells; preliminary studies, data not shown
Description: Human PKG Iβ cDNA was cloned by RT-PCR, using human platelet mRNA as templates. Sequence of the human PKG Iβ cDNA fragment matches the published sequence. Cloning of human PKG Iα cDNA was described previously. PKG Iα or Iβ in pCDNA3.1/Zeo+vector was transfected into 123 cells (CHO cells expressing recombinant human CPIb-IX and integrin αIIbβ3 using Lipofectamine plus (BRL). Expression of PKG was assessed by Western blotting with an antihuman PKG I antibody (Calbiochem). The kinase activity of the expressed enzymes was measured in cell homogenates using BPDEtide (Calbiochem) as substrate as detailed previously. vWF-induced GPIb-IX-mediated activation of integrin αIIbβ3 was examined by flow cytometry analysis of Oregon green-labeled fibrinogen binding to integrln αIIbβ3 as described previously. Briefly, cells were detached from tissue culture plate using 0.5 mM EDTA, washed at 4° C. and resuspended in modified Tyrode's solution. Cells then were incubated with Oregon green-labeled fibrinogen (20 μg/ml) in the presence of ristocetin and vWF at 22° C. for 30 minutes, and analyzed by FACScalibur flow cytometer. Nonspecific binding of fibrinogen was estimated by measuring fibrinogon binding in the presence of a specific integrin inhibitor RGDS (1 mM) (see Refs. 13 and 43-45).
In FIG. 1A, CHO cells expressing GPLb-JX and integrin αIIbβ3 (123 cells) were transfected with cDNA encoding PKGIα or vector. Expression of PKG Ia in 123 cells was detected by Western blotting with an anti-human PKG I antibody (Insert), and recombinant PKG activity was determined in the absence or presence of 20 μM 8-bromo-cGMP as previously described. Results are expressed as mean +SD (n=3). For FIGS. 1B and 1C, reconstitution of GPIb-IX-mediated integrin activation in CHO cells was published (see Ref. 13). […] Cells were analyzed by flow cytometry. Quantitative results from three experiments are expressed as fibrinogen binding indices (total bound fluorescence (Fg)/nonspecifically bound fluorescence (Fg+RGDS)), and shown in FIG. 1B (mean ±SD).

platelets [4] = test: Platelet spreading on vWF-coated surface; assay type: cell-based, human; conditions: FIG. 3C
Description: Platelets were allowed to adhere and spread on 10 μg/ml vWF-coated glass chamber slides (Nunc) at 37° C. for 1 hour. After three washes, platelets were fixed by adding 4% paraformaldehyde in PBS. Platelets were permeabilized by adding 0.1 M Tris, 0.01 M EGTA, 0.15 M NaCl, 5 mM MgCl2, pH 7.4, containing 0.1% Triton X-100, 0.5 mM leupeptin, 1 mM PMSF, and 0.1 mM E64, and then incubated with 20 μg/ml of anti-GPIba antibody (anti-IbαC) at 22° C. for 1 hour. Platelets were further incubated with fluorescein-labeled secondary antibody at 22° C. for 30 mm. After additional washes, platelets were scanned under a Zeiss LSM 510 confocai microscope (Magnification=630×).
as §2, with “Platelets were stained with an anti-GPIb antibody, and fluorescein-labeled secondary antibody. The slides were imaged under a confocal microscope (magnification =630×).” left out

platelets [5] = test: Measurement of cGMP formation in washed platelets (enzyme immunoassay); assay type: cell-based, human; conditions: ristocetin plus vWF 15 μg/ml or glyco-SNAP1 100 μM, 5 minutes, FIG. 4
Description: Washed platelets (3×10^8/ml) resuspended in 400 μl Tyrode's buffer were stirred at 37° C. after addition of control buffer, 1 mg/mi ristocetin alone, 15 pg/mi vWF and 1 mg/mi ristocetin, or 100 μM glyco-SNP1. The reaction was stopped by addition of 400 μl of ice-cold 12% (w/v) trichloroacetic acid. Samples were mixed and centrifuged at 2000×g for 15 ruin at […]. Supenatant was removed and washed with 5 volumes of water-saturated diethyl ether 4 times, and then lyophilized. cGMP levels were measured using a cGMP enzyme immunoassay kit from Amersham-Pharmacia Biotech.
Washed platelets (3×10^8/ml) were preincubated at 37° C. for 10 mm with buffer, control JgG, a monoclonal antibody against GPIba, AK2. Platelets then were further incubated in a platelet aggregometer for 5 minutes after addition of buffer (Control), 1.25 mg/ml ristocetin only (Risto), ristocetin plus vWF (vWF) (15 μg/ml) or glyco-SNAP1 (100 μM). The reaction was stopped by addition of 400 μl of ice-cold 12% (w/v) trichloroacetic acid. CGMP concentrations were determined using a cGMP enzyme immunoassay kit. Results are expressed as mean ±SD (n=3).

[6] = test system: CHO cells expressing human platelet receptors; test: Cell adhesion to immobilized vWF under flow; assay type: cell-based, Chinese Hamster; conditions: sildenafil 5 μM, RGDS 4 mM
Description: CHO cells expressing human platelet receptors were resuspended in modified Tyrode's buffer, pH 7.4, containing 1 mg/mi of bovine serum albumin (BSA) (see Ref. 46), and final cell count was 5×10^5/ml. […] Purified human vWF (10 μg/ml in 0.1 M NaHCO3, pH 8.3) was added to glass microcapillary tubes (inner diameter of 1.33 mm and a length of 7.2 cm), and incubated at 4° C. for 20 h. The vWF-coated microcapillary tubes then were incubated with 5% BSA. After washing, the cell suspension was aspirated through the tube by a syringe pump (Harvard Apparatus Inc.) at desired shear rates for 1.2 minutes and washed with modified Tyrode's buffer for additional 10 minutes at the same shear rates to remove transiently adherent cells. The experiments were continuously recorded on videotape using a video cassette recorder (model 9500, Sony). The number of stably adherent cell on immobilized vWF was counted on images obtained at 20 randomly selected positions in the vWF-coated tubes.
In FIGS. 2A and B, vWF-coated capillary tubes were perfused with equivalent numbers (5×10^5/ml) of CHO cells expressing recombinant GPLb-JX alone (1b9), integrin αIIbβ3 alone (2b3a), both GPIb-IX and integrin αIIbβ3 (123) or expressing GPJb-JX, integrin α^IIbβ3 and PKG Ia (123PKG) at a shear rates of 800 s^−1 (A) or 1500 s^−1 (B) for 1.2 minutes, and then perfused with the modified Tyrodes buffer for 10 minutes at the same shear rates to wash out transient adherent cells. The expenments were recorded in real time. Cells stably adherent to vWF-coated capillary tubes at 20 randomly selected locations were counted.
In FIG. 2C, vector-transfected 123 cells (123) or 123PKG cells also was perfused into vWF-coated glass capillary tubes as described in FIG. 2A in the absence or presence (+RGDS) of an integrin inhibitor RGDS peptide (4 mM) and in the absence (Control) or presence of cGMP-enhancing drug, sildenafil (5 μM). […] The experiments were repeated at least three times.

## Nc1nc2c(nc(Sc3ccc(Cl)cc3)n2C2O[C@@H]3COP(=O)(O)O[C@H]3[C@H]2O)c(=O)[nH]1 (stereo in doubt) [8-pCPT-cGMP]
Platelets [1]; PRP, agent added with subthreshold ristocetin (1 mg/mm [sic]) (or botrocetin), FIGS. 3B, 6A
  platelet aggregation together with a subthreshold concentration of ristocetin: induced integrin-dependent platelet aggregation
Platelets [2]; 0.5 mM 8-pCPT-cGMP, washed platelets, thrombin 0.05 u/ml, FIG. 7D
  preincubation time required to inhibit platelets: less than 5 minutes

## CCCCCCOC(=O)[C@]1(O)C[C@@H]2O[C@@]1(C)n1c3ccccc3c3c4c(c5c6ccccc6n2c5c31)C(=O)NC4 [KT5720]
Platelets [1]
  integrin-dependent second wave of platelet aggregation induced by ristocetin: no inhibitory effects

## COC(=O)[C@@]1(OC)C[C@H]2O[C@]1(C)n1c3ccccc3c3c4c(c5c6ccccc6n2c5c31)C(=O)N(C)C4 [KT5823]
[3]
  GPIb-IX-mediated integrin activation: inhibited
Platelets [1]
  integrin-dependent second wave of platelet aggregation induced by ristocetin: abolished
Platelets [2]
  platelet aggregation induced by 0.05 units/ml α-thrombin: inhibited
Platelets [4]
  platelet spreading on a vWF-coated surface: inhibited

## Nc1nc2c(nc(Sc3ccc(Cl)cc3)n2C2OC3COP(O)(=S)OC3C2O)c(=O)[nH]1 (stereo not drawn) [Rp-8-pCPT-cGMP]
Platelets [1]
  integrin-dependent second wave of platelet aggregation induced by ristocetin: inhibited
Platelets [2]
  platelet aggregation induced by 0.05 units/ml α-thrombin: inhibited

## CC(=O)NC(C(=O)NC1OC(CO)C(O)C(O)C1O)C(C)(C)SN=O (stereo not drawn) [glyco-SNAP1]
Platelets [5]
  platelet cGMP levels: comparable

## RGDS
[6]; FIG. 2C, 8-bromo-cGMP not shown
  stable adhesion of PKG-expressing 123 cells (123PKG) to vWF under flow: inhibited
[6]
  stable adhesion of sildenafil-treated 123 cells to vWF under flow: inhibited
Platelets [2]
  platelet aggregation induced by 0.05 units/ml α-thrombin: inhibited

## RGES
Platelets [2]
  platelet aggregation induced by 0.05 units/ml α-thrombin: no effect

## vWF: purified human von Willebrand factor, ligand of GPIb-IX
Platelets [5]
  platelet cGMP levels: dramatic increase
